pKi: −log10 of the molar value.
Target: T1, Leukotriene B4 receptor 2 (Homo sapiens, UniProt Q9NPC1)
T1 sequence (Q9NPC1 whole entry): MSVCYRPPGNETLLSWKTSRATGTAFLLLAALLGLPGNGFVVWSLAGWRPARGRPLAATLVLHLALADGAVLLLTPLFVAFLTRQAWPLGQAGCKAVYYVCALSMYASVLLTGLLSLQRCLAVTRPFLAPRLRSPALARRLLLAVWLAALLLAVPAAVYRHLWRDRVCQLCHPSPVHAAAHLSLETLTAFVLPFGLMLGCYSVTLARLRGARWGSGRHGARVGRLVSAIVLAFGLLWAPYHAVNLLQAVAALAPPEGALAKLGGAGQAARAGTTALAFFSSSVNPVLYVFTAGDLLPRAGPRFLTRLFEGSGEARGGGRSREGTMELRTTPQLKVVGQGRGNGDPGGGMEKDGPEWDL

Row | pKi | SMILES
1 | 6.92 | CCCCC/C=C\C[C@H](O)/C=C/c1cccc(C[C@H](O)CCCCO)n1 [(5R)-6-[6-[(1E,3S,5Z)-3-hydroxyundeca-1,5-dienyl]pyridin-2-yl]hexane-1,5-diol]
2 | 8.12 | CCCCCCC=CC(=O)C=CC=CC=CC(O)CCCC(=O)O (stereo not given) [CAS_5280876]
3 | 8.12 | O=C(O)CCCC(O)C=CC=CC=CC(O)CC=CCCCCCO (stereo not given) [NSC_1589]
4 | 6.72 | O=C(O)CCCCCC=CCC(O)C=CC=CC=CC(O)CCCC(=O)O (stereo not given) [NSC_128572]
5 | 5.92 | COc1ccc(/C=C/CCCCOc2cccc(OCCCCC(=O)O)c2CCC(=O)O)cc1 [ONO 4057]

— BindingDB's records for doi:10.1038/42506 (The University of Tokyo, 1997)
